Source: patent US20250372228A1, “METHOD AND SYSTEM FOR D[…] PHARMACOKINETIC MODEL OF PROPOFOL AND DERIVATIVE THEREOF” (Xizang Haisco Pharmaceutical Co., Ltd., priority 2020, published 2025)
Like-named read-outs stand apart in the source and are kept apart here.

Columns and labels:
[1] = Population pharmacokinetic (PopPK) three-compartment model of the propofol derivative from clinical trial plasma concentrations; type: in vivo, human; conditions: for Intercompartmental clearance between the central compartment and the peripheral compartment 1, Q2: exp(θ3); for Volume of distribution in the peripheral compartment 1, V2: exp(θ4); for Clearance between the central compartment and the peripheral compartment 2, Q3: exp(θ5); for Volume of distribution in the peripheral compartment 2, V3: exp(θ6); for relative median change of CL by total protein: total protein range not given; for Residual of venous blood collection (%): σ1; for Residual of arterial blood collection (%): σ2; for Interindividual variation of clearance, CL %: ωCL; for Interindividual variation of intercompartmental clearance between the central compartment and the peripheral compartment 1, Q2%: ωQ2; for Interindividual variation of intercompartmental clearance between the central compartment and the peripheral compartment 2, Q3%: ωQ3; for Interindividual variation of volume of distribution in the central compartment, V1%: ωV1; for Interindividual variation of volume of distribution in the peripheral compartment 2, V3%: ωV3
Text: The original data set comprises 2609 measurable plasma drug concentration data from 219 subjects (wherein 81 people receive both arterial and venous blood collection, and subjects receiving another blood collecting method are regarded as new individuals, that is, 300 individuals are included in the population analysis).
By using a stepwise backward elimination method, no influence factors are eliminated (Δ−2LL>10.83).

[2] = Free drug concentration in the aqueous phase by ultrafiltration method; type: physicochemical; conditions: same conditions and concentrations, compared with propofol (Jingan®)
Text: Propofol derivative injectable emulsion (hereinafter referred to as propofol derivative, with a chemical name of 2-[(1R)-1-cyclopropylethyl]-6-isopropyl-phenol), which is developed by Sichuan Haisco Pharmaceutical Co., Ltd. as a novel intravenous anesthetic with independent intellectual property rights, is intended to be used for sedation/anesthesia in various diagnostic examinations or treatments, induction and maintenance of general anesthesia, and sedation (ICU sedation) of intensive care subjects under mechanical ventilation. The propofol derivative, as the active ingredient, is a chemical entity similar to propofol, and is a single […] with two chiral centers of R-configuration. […] The main action mechanism of the propofol derivative is to allow for the inflow of chloride ions by enhancing an ion channel mediated by a γ-aminobutyric acid type A (GABAA) receptor, thereby achieving the inhibition of the nervous centralis. The channel is also a main target where propofol exerts its effects. The propofol derivative has the pharmacodynamic characteristics of fast onset of action and stable and rapid recovery.

[3] = tested on: γ-aminobutyric acid type A (GABAA) receptor; experiment: Potency compared with propofol (background statement)
clinical = conditions: human, plasma, intravenous; for clearance: CL, exp(θ1); for Vd: Volume of distribution in the central compartment, V1, exp(θ2)
Description: (§1) A pharmacokinetic data set included in the analysis are determined by evaluating the clinical trial data included: • plasma drug concentration data: acquired by means of implementation of the sampling scheme (see FIG. 8); • baseline demographic characteristic data: race, age, height, weight and gender; • blood biochemical index data: blood total protein content, creatinine clearance, glutamic-oxalacetic transaminase and glutamic-pyruvic transaminase; and • blood collection sites.
(§2) Establishing the preliminary foundation model on the basis of the data processed in step 3 comprising: • (1) describing interindividual variation of the PK parameters by using the following equation:
(§3) Establishing the final foundation model on the basis of the preliminary foundation model in step 4 comprising: • (1) determining covariates included in the evaluation on the basis of clinical knowledge and a drug action mechanism: • baseline demographic characteristic covariates: baseline values for age, gender, weight and race; • blood biochemical index covariates: creatinine clearance, total protein, glutamic-oxalacetic transaminase, glutamic-pyruvic transaminase, alkaline phosphatase and total bilirubin; and • blood collection sites. • (2) establishing a final population pharmacokinetic foundation model on the basis of the covariates included in the evaluation.
(§4) Establishing the population pharmacokinetic model by adding the screened covariates on the basis of the final foundation model in step 5 comprising: • (1) Pre-screening of covariates: • analyzing the correlation between the continuous covariates and the PK parameters by using the following equation:

[4] = for Volume of distribution in the peripheral compartment 2, V3: exp(6); for Volume of distribution in the peripheral compartment 2, V3 / Clearance between the central compartment and the peripheral compartment 2, Q3: parameter fixed (FIX); for Intercompartmental clearance between the central compartment and the peripheral compartment 1, Q2: exp(θ3); for Volume of distribution in the peripheral compartment 1, V2: exp(θ4); for Clearance between the central compartment and the peripheral compartment 2, Q3: exp(θ5); for Residual (%): σ1; for Clearance, CL %: ωCL (interindividual variation); for Volume of distribution in the central compartment, V1%: ωV1 (interindividual variation)
Description: as §1, §2, §3, §4

[5] = median of Bootstrap (2.5th to 97.5th percentiles)
[6] = typical value of final population model (95% CI)
[7] = typical value of final population model

Compound: CC(C)c1cccc([C@H](C)C2CC2)c1O [propofol derivative, 2-[(1R)-1-cyclopropylethyl]-6-isopropyl-phenol]
- influence of age on AUC0-24 ([1]; age 19.8 to 53 years old, propofol derivative-302 trial): no influence
- influence of age on Cmax ([1]; age 19.8 to 53 years old, propofol derivative-302 trial, expected to be clinically insignificant): has an influence
- Clearance, CL ([1]; exp(θ1), median of Bootstrap (2.5th to 97.5th percentiles)): 66.4 (63.7 to 69.4) L/hr
- Volume of distribution in the central compartment, V1 ([1]; exp(θ2), median of Bootstrap (2.5th to 97.5th percentiles)): 2.48 (2.27 to 2.74) L
- Intercompartmental clearance between the central compartment and the peripheral compartment 1, Q2 [1, 5]: 57.9 (51.5 to 65.6) L/hr
- Intercompartmental clearance between the central compartment and the peripheral compartment 1, Q2 [1, 6]: 58 (50.8 to 65.1) L/hr
- Volume of distribution in the peripheral compartment 1, V2 [1, 5]: 5.74 (5.07 to 6.7) L
- Volume of distribution in the peripheral compartment 1, V2 [1, 6]: 5.77 (4.96 to 6.58) L
- Clearance between the central compartment and the peripheral compartment 2, Q3 [1, 5]: 59.1 (54.6 to 63.6) L/hr
- Clearance between the central compartment and the peripheral compartment 2, Q3 [1, 6]: 59.0 (54.5 to 63.5) L/hr
- Volume of distribution in the peripheral compartment 2, V3 [1, 5]: 78.4 (73 to 83.9) L
- Volume of distribution in the peripheral compartment 2, V3 [1, 6]: 78.3 (72.8 to 83.8) L
- relative median change of CL by total protein ([1]; first value of the pair): 6.8%
- clearance ([1]; human, plasma, intravenous, exp(θ1), typical value of final population model (95% CI), read-out: Clearance, CL (converted)): 1110 mL/min
- Vd ([1]; human, plasma, intravenous, exp(θ2), typical value of final population model (95% CI), read-out: Volume of distribution in the central compartment, V1): 2.48 L
- relative median change of CL by total protein ([1]; second value of the pair): −6.3%
- relative median change of CL by weight ([1]; weight 45 kg (lower end of range 45 kg to 90 kg)): −11.6%
- relative median change of CL by weight ([1]; weight 90 kg (upper end of range 45 kg to 90 kg)): 12.7%
- Residual of venous blood collection (%) [1, 5]: 30.5 (26.3 to 34.6) %
- Residual of venous blood collection (%) [1, 6]: 30.6 (26.6 to 34.5) %
- Residual of arterial blood collection (%) [1, 5]: 16.9 (15.7 to 18.2) %
- Residual of arterial blood collection (%) [1, 6]: 16.9 (15.8 to 18.1) %
- Interindividual variation of clearance, CL % [1, 5]: 14.3 (11.9 to 17) %
- Interindividual variation of clearance, CL % [1, 6]: 14.5 (12 to 16.9) %
- Interindividual variation of intercompartmental clearance between the central compartment and the peripheral compartment 1, Q2% [1, 5]: 29.0 (23.1 to 35.5) %
- Interindividual variation of intercompartmental clearance between the central compartment and the peripheral compartment 1, Q2% [1, 6]: 28.9 (23.1 to 34.7) %
- Interindividual variation of intercompartmental clearance between the central compartment and the peripheral compartment 2, Q3% [1, 5]: 28.8 (22.8 to 36.3) %
- Interindividual variation of intercompartmental clearance between the central compartment and the peripheral compartment 2, Q3% [1, 6]: 29.1 (23.1 to 35.1) %
- Interindividual variation of volume of distribution in the central compartment, V1% [1, 5]: 40.4 (27.7 to 54.5) %
- Interindividual variation of volume of distribution in the central compartment, V1% [1, 6]: 41.4 (28 to 54.9) %
- Interindividual variation of volume of distribution in the peripheral compartment 2, V3% [1, 5]: 30.5 (25.3 to 35.7) %
- Interindividual variation of volume of distribution in the peripheral compartment 2, V3% [1, 6]: 30.7 (25.6 to 35.8) %
- free drug concentration in the aqueous phase [2]: lower free drug concentration in the aqueous phase
- potency relative to propofol [3]: 4-5 times

Compound: CC(C)c1cccc(C(C)C)c1O [propofol]
- clearance (clinical; [5]): 1530 mL/min
- clearance (clinical; [6]): 1590 mL/min
- Vd (clinical; [5]): 8.92 L
- Vd (clinical; [6]): 9.46 L
- influence of covariates on the pharmacokinetic parameters ([4]; covariate screening, forward and backward method): not found that covariates have a significant influence
- Volume of distribution in the peripheral compartment 2, V3 ([4]; Bootstrap column): 262, FIX(—) L
- Volume of distribution in the peripheral compartment 2, V3 [4, 7]: 262, FIX(—) L
- Intercompartmental clearance between the central compartment and the peripheral compartment 1, Q2 [4, 5]: 132 (13.0 to 200) L/hr
- Intercompartmental clearance between the central compartment and the peripheral compartment 1, Q2 [4, 6]: 142 (88.4 to 196) L/hr
- Volume of distribution in the peripheral compartment 1, V2 [4, 5]: 35.6 (1.64 to 53.3) L
- Volume of distribution in the peripheral compartment 1, V2 [4, 6]: 37.6 (25.2 to 50.0) L
- Clearance between the central compartment and the peripheral compartment 2, Q3 ([4]; Bootstrap column): 48.6, FIX(—) L/hr
- Clearance between the central compartment and the peripheral compartment 2, Q3 [4, 7]: 48.6, FIX(—) L/hr
- Residual (%) [4, 5]: 17.1 (11 to 23.1) %
- Residual (%) [4, 6]: 19.2 (12.7 to 25.7) %
- Clearance, CL % [4, 5]: 22.5 (13.6 to 30.6) %
- Clearance, CL % [4, 6]: 23.0 (14.8 to 31.1) %
- Volume of distribution in the central compartment, V1% [4, 5]: 32.4 (6.02 to 49.5) %
- Volume of distribution in the central compartment, V1% [4, 6]: 30.5 (8.11 to 52.9) %
